Holding throughout (type): biochemical
Assay [1] has as its target T1, bZiPro (unlinked binary Zika virus NS2B-NS3 protease) (Zika virus, UniProt A0A024B7W1).
T1 construct: The viral protease consists of the N‐terminal third of the nonstructural protein NS3; the NS2B construct ends at Glu96; His6 (cleaved yes); made in house
In words: Enzyme kinetics with bZiPro, fluorogenic substrate Phac-Leu-Lys-Lys-Arg-AMC. How it is done:
(§1) Enzyme kinetics. Measurements with bZiPro15 and the covalent WNV NS2B‐NS3 construct^10 were performed at room temperature in black 96 well plates using a Fluoroskan Ascent® plate reader (Thermo Fisher Scientific, Vantaa, Finland) with λ ex at 355 nm and λ em at 460 nm. Each well contained 125 μL inhibitor dissolved in buffer (for bZiPro: 20 mM Tris×HCl pH 8.5, 2 mM DTT, 10 w/v glycerol and 0.01 w/v Triton X‐100;18 for WNV protease: 100 mM Tris×HCl pH 8.5, containing 32 w/v glycerol and 0.01 w/v Triton X‐10012) and 50 μL substrate Phac‐Leu‐Lys‐Lys‐Arg‐AMC12 (40 μM for bZiPro (10 μM in assay, K M=1.4 μM) and 400 μM for the WNV protease (100 μM in assay, K M=53 μM)). The measurements were started by addition of 25 μL enzyme solution (16 nM for bZiPro (2.0 nM in assay), and 64 nM for the WNV protease (8.0 nM in assay)). Data points were collected each 15 s over a period of 10 min using eight different inhibitor concentrations. […] The K i values and their standard deviation were obtained from at least three independent measurements.(1) vi=Vmax×[S]/KM1+[I]/Ki+[S]
The constants K M and V max were obtained from independent measurements with six different substrate concentrations in absence of inhibitor. For inhibitor 10 with bZiPro, additional measurements at three substrate concentrations (10, 5, and 2.5 μM in assay) were performed to obtain the Dixon plot shown in Figure 4.

Assay [2] concerns the target T2, WNV NS2B-NS3 protease (WNV-Pro) (West Nile virus, UniProt P06935).
T2 construct: NS3 has to form a complex with its cofactor NS2B to achieve proteolytic activity; The viral protease consists of the N‐terminal third of the nonstructural protein NS3
The experiment in a line: Enzyme kinetics with the covalent WNV NS2B-NS3 construct, substrate Phac-Leu-Lys-Lys-Arg-AMC. How it is done:
as §1

For assay [3], the target named is T3, bD4Pro (unlinked binary dengue-4 virus NS2B-NS3 protease) (Dengue virus type 4, UniProt Q2YHF2).
T3 construct: The viral protease consists of the N‐terminal third of the nonstructural protein NS3; NS3 has to form a complex with its cofactor NS2B to achieve proteolytic activity; His6 (cleaved yes); made in house
T3 sequence (Q2YHF2 1475-1652 limits assumed): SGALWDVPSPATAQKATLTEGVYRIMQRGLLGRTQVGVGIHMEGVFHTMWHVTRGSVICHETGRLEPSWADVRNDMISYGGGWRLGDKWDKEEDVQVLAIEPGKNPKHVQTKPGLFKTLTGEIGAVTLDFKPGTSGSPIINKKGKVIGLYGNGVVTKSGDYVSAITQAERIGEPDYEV
T3 sequence (Q2YHF2 1397-1436 limits assumed): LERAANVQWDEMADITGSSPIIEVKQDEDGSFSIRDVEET
In words: Enzyme kinetics with bD4Pro, substrate Benzoyl-Nle-Lys-Arg-Arg-AMC. The method, then: Measurements with the dengue 4 virus protease construct (bD4Pro; expressed and purified by a similar methodology as described for bZiPro15 with slight modification of using Tobacco Etch Virus (TEV) protease instead of thrombin for His6‐tag cleavage) were performed in a Cytation 3 Mulitmode plate reader with λ ex at 380 nm and λ em at 460 nm. Assays were carried out as triplicate at 37 °C. Before measurement, the protease (final assay concentration 3 nM) was preincubated with varying concentrations of inhibitors in assay buffer (20 mM Tris pH 8.5, 10 % glycerol, 0.01 % Triton X‐100) for 1 h at room temperature in Corning black clear bottom 96‐well plates. The reaction was started by addition of the substrate Benzoyl‐Nle‐Lys‐Arg‐Arg‐AMC (final assay concentration 50 μM, K M=48.4 μM). Fluorescent readings were recorded at 1‐minute intervals over 10 minutes. The steady‐state rates v i in presence of inhibitor were calculated from the slopes of the progress curves using Graph Pad Prism. The v i values were fitted to Equation (2) as function of the inhibitor concentration [I] providing the IC50 values, where v 0 is the rate in absence of inhibitor and s a slope factor. The obtained IC50 values were finally converted into K i values by the Cheng‐Prusoff Equation (2).(2) vi=v0/1+I/IC50^s (3) Ki=IC50/1+S/KM

The target in another assay is T4, trypsin (Bos taurus, UniProt P00760).
T4 construct: gene PRSS1
T4 sequence (P00760 24-246): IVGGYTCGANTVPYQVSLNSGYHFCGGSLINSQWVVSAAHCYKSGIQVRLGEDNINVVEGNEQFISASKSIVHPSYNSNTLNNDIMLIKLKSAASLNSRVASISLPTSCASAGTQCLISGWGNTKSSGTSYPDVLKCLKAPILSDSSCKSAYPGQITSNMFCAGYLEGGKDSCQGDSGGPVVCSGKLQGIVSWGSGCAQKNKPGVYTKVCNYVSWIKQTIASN
In words: Enzyme kinetic assay with trypsin (selectivity). To be noted: at concentrations of 75 μM. The text has this: (§2) Some of the latter group, like the peptidic arginal8 or boroarginine derivatives,10 form a reversible covalent bond with their target. […] With respect to virus replication, mutations in allosteric binding pockets are better tolerated than changes in the active site, which often lead to a more severe influence on the fitness of the virus.31, 32 This advantage justifies further efforts for the improvement of active site inhibitors. One strategy to reduce the conformational freedom of peptide derivatives and predisposing them to a favorable orientation for binding is their macrocyclization, leading to improved potency, selectivity and stability.33 By this approach, we have prepared numerous noncovalent inhibitors with excellent selectivity for the tested flavivirins, when compared with trypsin‐like serine proteases or basic proprotein convertases. […] The deep S1 pocket of trypsin34 and furin35 cannot tolerate a branching close to the basic P1 guanidine anchor, which is well accepted by the flavivirins due to their flat and open S1 site. In contrast to some of our previously described linear C‐terminal elongated derivatives,18, 36 the cyclic derivatives are fully stable when incubated with bZiPro, as analyzed by mass spectrometry (Figure S3). […]

The next assay concerns the target furin (Homo sapiens, UniProt P09958). In words: Enzyme kinetic assay with furin (selectivity). To be noted: at concentrations of 75 μM.
Excerpt: as §2

The mark [4] stands for this setting: K i bZiPro, mean±SD of at least three independent measurements, substrate 10 μM in assay, room temperature, pH 8.5.

T2 sequence (P06935 1424-1463): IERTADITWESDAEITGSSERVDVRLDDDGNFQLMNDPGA
T2 sequence (P06935 1502-1679): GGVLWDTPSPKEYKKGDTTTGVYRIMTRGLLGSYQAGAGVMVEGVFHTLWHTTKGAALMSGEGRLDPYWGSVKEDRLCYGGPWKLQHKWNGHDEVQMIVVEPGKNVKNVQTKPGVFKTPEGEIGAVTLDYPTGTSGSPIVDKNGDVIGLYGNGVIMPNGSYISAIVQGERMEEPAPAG
T1 sequence (A0A024B7W1 1503-1680 limits assumed): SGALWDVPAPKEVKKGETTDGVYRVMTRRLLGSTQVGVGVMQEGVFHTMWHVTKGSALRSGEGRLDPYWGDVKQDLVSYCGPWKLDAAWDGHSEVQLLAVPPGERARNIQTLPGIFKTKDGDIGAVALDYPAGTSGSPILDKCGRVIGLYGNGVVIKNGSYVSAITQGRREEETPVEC
T1 sequence (A0A024B7W1 1425-1464 limits assumed): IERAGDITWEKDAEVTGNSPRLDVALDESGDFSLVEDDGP
Sequence of furin (P09958 108-794): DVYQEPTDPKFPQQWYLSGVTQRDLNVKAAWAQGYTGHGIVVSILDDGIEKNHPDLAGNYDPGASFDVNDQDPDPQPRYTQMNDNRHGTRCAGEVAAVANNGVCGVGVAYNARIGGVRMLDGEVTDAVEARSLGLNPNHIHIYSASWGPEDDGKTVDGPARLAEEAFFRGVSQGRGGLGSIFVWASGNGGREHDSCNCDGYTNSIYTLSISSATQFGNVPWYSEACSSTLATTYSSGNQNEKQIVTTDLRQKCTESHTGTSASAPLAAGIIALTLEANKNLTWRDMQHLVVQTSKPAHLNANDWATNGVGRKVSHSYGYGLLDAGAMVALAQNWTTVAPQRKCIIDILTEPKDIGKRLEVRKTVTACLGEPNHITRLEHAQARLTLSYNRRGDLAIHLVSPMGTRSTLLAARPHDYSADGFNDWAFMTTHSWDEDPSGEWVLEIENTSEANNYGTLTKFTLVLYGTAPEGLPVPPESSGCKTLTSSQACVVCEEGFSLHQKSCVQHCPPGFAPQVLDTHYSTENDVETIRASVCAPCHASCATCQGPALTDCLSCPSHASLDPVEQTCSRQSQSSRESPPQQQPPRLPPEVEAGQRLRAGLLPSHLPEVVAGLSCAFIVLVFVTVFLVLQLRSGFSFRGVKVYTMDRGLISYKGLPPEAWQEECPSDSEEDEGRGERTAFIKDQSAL

In the case of `N=C(N)N[C@@H]1CCCCNC(=O)[C@H](CCCCN)NC(=O)[C@H](CCCCN)NC(=O)Cc2cccc(c2)CNC(=O)CNC1=O` [Inhibitor 10, 1‐((8R,15S,18S)‐15,18‐bis(4‐aminobutyl)‐4,7,14,17,20‐pentaoxo‐3,6,13,16,19‐pentaaza‐1(1,3)‐benzenacyclohenicosaphane‐8‐yl)guanidine], the Ki is 1.57 ± 0.32 nM in assay [1] (setting [4]), 138 ± 31 nM in assay [2] and 142 ± 10 nM in assay [3]. Also, the “binding mode from Dixon plot of bZiPro inhibition” value in assay [1] (substrate 10, 5 and 2.5 μM, bZiPro 1.96 nM in assay) is “competitive reversible”. At trypsin, the inhibition of trypsin result is reported as “could not detect any inhibition”. Moreover, the inhibition of furin result against furin is reported as “could not detect any inhibition”.
For `N=C(N)N[C@@H]1CCCCNC(=O)[C@H](CCCCN)NC(=O)[C@H](CCCCN)NC(=O)Cc2cccc(c2)NC(=O)CNC1=O` [Inhibitor 11], the Ki came out at 1420 ± 270 nM in assay [1] (setting [4]), 47600 ± 2500 nM in assay [2] and 60600 ± 5300 nM in assay [3]. The inhibition of trypsin entry on trypsin was “could not detect any inhibition”. Also, on furin, the inhibition of furin entry was “could not detect any inhibition”.
In the case of `N=C(N)N[C@@H]1CCCCNC(=O)[C@H](CCCCN)NC(=O)[C@H](CCCCN)NC(=O)CCCCCNC(=O)CNC1=O` [Inhibitor 24], the Ki was found to be 15.4 ± 2.6 nM in assay [1] (setting [4]), 973 ± 173 nM in assay [2] and 1990 ± 90 nM in assay [3].
`C[C@@H]1NC(=O)[C@H](NC(=N)N)CCCCNC(=O)[C@H](CCCCN)NC(=O)[C@H](CCCCN)NC(=O)Cc2cccc(c2)CNC1=O` [Inhibitor 15]: the Ki worked out at 18.2 ± 5.1 nM in assay [1] (setting [4]), 1390 ± 320 nM in assay [2] and 3600 ± 380 nM in assay [3].
For `N=C(N)N[C@@H]1CCCCNC(=O)[C@H](CCCCN)NC(=O)[C@H](CCCCN)NC(=O)Cc2ccc(cc2)CNC(=O)CCCNC1=O` [Inhibitor 4], the Ki in assay [1] (setting [4]) turned out to be 70.1 ± 9.2 nM; in assay [2] it was 4970 ± 500 nM; in assay [3] it was 4730 ± 500 nM.
With `N=C(N)N[C@@H]1CCCCNC(=O)[C@H](CCCCN)NC(=O)[C@H](CCCCN)NC(=O)Cc2cccc(c2)CNC(=O)CCNC1=O` [Inhibitor 9], the Ki in assay [1] (setting [4]) amounted to 3.88 ± 0.81 nM; in assay [2], 374 ± 44 nM; in assay [3], 182 ± 5 nM.
Regarding `N=C(N)N[C@@H]1CCCCNC(=O)[C@H](CCCCN)NC(=O)[C@H](CCCCN)NC(=O)Cc2cccc(c2)NC(=O)CCNC1=O` [Inhibitor 13], the Ki amounted to 80 nM in assay [1] (K i against bZiPro / ZIKV protease, value given in running text); 80.2 ± 9.7 nM in assay [1] (setting [4]); 4280 ± 310 nM in assay [2]; 7960 ± 550 nM in assay [3].
As for `N=C(N)N[C@@H]1CCCCNC(=O)[C@H](CCCCN)NC(=O)[C@H](CCCCN)NC(=O)Cc2cccc(c2)CNC1=O` [Inhibitor 12], the values for the Ki in assay [1] (setting [4]), in assay [2] and in assay [3] were 37.3 ± 4.7 nM, 15300 ± 800 nM and 1280 ± 50 nM, respectively.

For the origin of these results see publication PMC7497253, “Structure‐Based Macrocyclization of Substrate Analogue NS2B‐NS3 Protease Inhibitors of Zika, West Nile and Dengue viruses” (Chemmedchem, 2020).
